Source: patent US7176204B2, “Substituted carboxylic acid derivatives” (Kyorin Pahrmaceutical Co., Ltd., priority 2000, dated 2007)
pEC50: −log10 of the molar value.

Tests used:
[1] = target: T1, human type PPARα ligand-binding domain fused with DNA-binding domain of yeast transcription factor (Homo sapiens, UniProt Q07869); experiment: Test of transactivation on PPAR (luciferase reporter, CHO cells), PPARα; format: cell-based; details: luciferase activity after 24 hours, corrected with Renilla internal standard
T1 construct: expressed in transfected cells; host or cells: CHO cells
T1 sequence (Q07869 239-466 limits assumed): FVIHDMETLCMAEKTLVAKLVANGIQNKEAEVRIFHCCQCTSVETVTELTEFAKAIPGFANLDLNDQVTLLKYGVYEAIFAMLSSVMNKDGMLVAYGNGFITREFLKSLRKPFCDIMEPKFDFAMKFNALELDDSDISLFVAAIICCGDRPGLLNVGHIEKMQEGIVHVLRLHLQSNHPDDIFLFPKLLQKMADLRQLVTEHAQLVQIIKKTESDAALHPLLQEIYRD
Excerpt: (§1) <Test of Transactivation on Peroxisome Proliferator-Activated Receptor (PPAR)
(§2) To CHO cells cultured in a Dulbecco-modified Eagle's medium containing 10% delipidated fetal calf serum (FCS/DMEM), receptor plasmid and its reporter plasmid (STRATAGENE Corp.) that manifest fused protein of DNA-binding domain being transcription factor of yeast with each ligand-binding domain of human type PPAR (Biochemistry, 1993, 32, 5598), and luciferase plasmid of Renilla (PROMEGA Corp.) for internal standard were cotransfected with lipofectamine in the serum-free state. Thereafter, testing compound was added to the 10% SFCS/DMEM and both luciferase activities were measured after 24 hours, which were corrected with internal standard.

[2] = target: T2, human type PPARδ ligand-binding domain fused with DNA-binding domain of yeast transcription factor (Homo sapiens, UniProt Q03181); experiment: Test of transactivation on PPAR (luciferase reporter, CHO cells), PPARδ; format: cell-based; details: luciferase activity after 24 hours, corrected with Renilla internal standard
T2 construct: expressed in transfected cells; host or cells: CHO cells
T2 sequence (Q03181 211-439 limits assumed): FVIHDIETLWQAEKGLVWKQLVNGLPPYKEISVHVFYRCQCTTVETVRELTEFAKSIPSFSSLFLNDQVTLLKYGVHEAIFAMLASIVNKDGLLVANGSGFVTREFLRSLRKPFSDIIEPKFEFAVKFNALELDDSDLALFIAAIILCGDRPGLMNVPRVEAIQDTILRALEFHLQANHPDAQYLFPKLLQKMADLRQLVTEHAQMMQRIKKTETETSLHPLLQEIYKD
Excerpt: as §1, §2

[3] = target: T3, human type PPARγ ligand-binding domain fused with DNA-binding domain of yeast transcription factor (Homo sapiens, UniProt P37231); experiment: Test of transactivation on PPAR (luciferase reporter, CHO cells), PPARγ; format: cell-based; details: luciferase activity after 24 hours, corrected with Renilla internal standard
T3 construct: expressed in transfected cells; host or cells: CHO cells
T3 sequence (P37231 238-503 limits assumed): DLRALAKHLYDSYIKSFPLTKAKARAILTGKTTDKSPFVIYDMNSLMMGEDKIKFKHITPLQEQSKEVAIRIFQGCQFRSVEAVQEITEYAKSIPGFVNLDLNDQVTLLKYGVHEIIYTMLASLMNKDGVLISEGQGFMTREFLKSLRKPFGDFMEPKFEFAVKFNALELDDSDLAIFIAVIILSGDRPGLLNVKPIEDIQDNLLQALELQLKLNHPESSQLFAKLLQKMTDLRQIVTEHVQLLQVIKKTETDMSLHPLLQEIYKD
Excerpt: as §1, §2

SMILES	pEC50 [1]	pEC50 [2]	pEC50 [3]	melting point [°C]
CCC(Cc1ccc(OC)c(C(=O)NCc2ccc(Oc3ccccn3)cc2)c1)C(=O)O (centres unmarked) [Example 18]	6.85	< 4.00	5.02	138 to 139
CCOc1ccc(CC(CC)C(=O)O)cc1CNC(=O)c1ccc(Oc2ccccn2)cc1 (single isomer, unassigned; (+)) [Example 27, (+)-2-[[4-Ethoxy-3-[[[4-(2-pyridyloxy)phenyl]carbonylamino]-methyl]phenyl]methyl]butyric acid]	7.22	6.68	6.26	
CCOc1ccc(CC(CC)C(=O)O)cc1CNC(=O)c1ccc(Oc2ccccn2)cc1 (racemic) [Example 26, 2-[[4-Ethoxy-3-[[[4-(2-pyridyloxy)phenyl]carbonylamino]-methyl]phenyl]methyl]butyric acid]	7.36	6.72	6.39	
CCC(Cc1ccc(OC)c(CNC(=O)c2ccc(Oc3cccnc3)cc2)c1)C(=O)O (centres unmarked) [Example 23]	6.47	5.66	5.27	
CCOc1ccc(CC(CC)C(=O)O)cc1CNC(=O)c1ccc(Oc2ccccn2)cc1 (single isomer, unassigned; (-)) [Example 28, (−)-2-[[4-Ethoxy-3-[[[4-(2-pyridyloxy)phenyl]carbonylamino]methyl]phenyl]methyl]butyric acid]	6.72	5.96	6.24	
COc1ccc(CCC(=O)O)cc1C(=O)NCc1cccnc1 [Example 16, 3-[3-[N-(3-Pyridylmethyl)carbamoyl]-4-methoxyphenyl]propionic acid]				175 to 176
